From article PMC5908784, “Extracellular loops 2 and 3 of the calcitonin receptor selectively modify agonist binding and efficacy” (Biochemical Pharmacology, 2018) come the findings set out here.

Molecules are shown by their SMILES. Numbering of substitutions follows the chain as printed. Where a SMILES comes first, the peptide text is derived from it. Bridges are numbered along the chain shown (N, C = ends).

Experiment in all cases: Heterologous whole cell competition binding
Holding throughout (conditions): heterologous competition of 125I-sCT(8-32), whole cells, mean ± S.E.M., SEM

For one assay, the target named is T1, hCTR M367A (Homo sapiens, UniProt P30988, M367A).
T1 construct: c-Myc (N); expressed in transfected cells
T1 sequence (P30988 25-474 M367A): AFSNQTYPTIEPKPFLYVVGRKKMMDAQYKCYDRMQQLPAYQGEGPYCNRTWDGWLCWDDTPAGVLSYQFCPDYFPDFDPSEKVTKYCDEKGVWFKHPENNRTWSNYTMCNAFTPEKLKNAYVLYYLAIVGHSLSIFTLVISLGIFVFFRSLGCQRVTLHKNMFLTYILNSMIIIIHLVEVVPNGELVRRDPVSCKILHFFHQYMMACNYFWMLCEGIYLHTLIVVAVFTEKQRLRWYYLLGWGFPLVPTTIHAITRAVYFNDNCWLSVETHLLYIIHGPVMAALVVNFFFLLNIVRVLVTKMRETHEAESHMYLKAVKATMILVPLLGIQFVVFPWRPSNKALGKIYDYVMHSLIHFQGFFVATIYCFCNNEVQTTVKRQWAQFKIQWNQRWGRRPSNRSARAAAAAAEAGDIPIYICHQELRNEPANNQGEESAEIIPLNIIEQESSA
Summed up: (§1)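 Gamma counter read-out of bound radioactivity after overnight incubation and removal of non-bound ligand. Affinities are given as pKi, derived with Cheng-Prusoff correction.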

For a further assay, the target named is T2, hCTR W361A (Homo sapiens, UniProt P30988, W361A).
T2 construct: expressed in transfected cells
T2 sequence (P30988 25-474 W361A): T1 sequence (P30988 25-474 M367A) with W337A, A343M
Summed up:
as §1

The target in the next assay is T3, hCTR T280A (Homo sapiens, UniProt P30988, T280A).
T3 construct: expressed in transfected cells
T3 sequence (P30988 25-474 T280A): T1 sequence (P30988 25-474 M367A) with T256A, A343M
Summed up:
as §1

The target in the next assay is T4, hCTR F285A (Homo sapiens, UniProt P30988, F285A).
T4 construct: expressed in transfected cells
T4 sequence (P30988 25-474 F285A): T1 sequence (P30988 25-474 M367A) with F261A, A343M
Summed up: as §1

The next assay has as its target T5, hCTR L297A (Homo sapiens, UniProt P30988, L297A).
T5 construct: c-Myc (N); expressed in transfected cells
T5 sequence (P30988 25-474 L297A): T1 sequence (P30988 25-474 M367A) with L273A, A343M
Summed up: as §1

`CSCC[C@H](NC(=O)CNC(=O)[C@H](CO)NC(=O)[C@H](Cc1ccccc1)NC(=O)[C@H](CCCNC(=N)N)NC(=O)[C@H](Cc1c[nH]cn1)NC(=O)[C@H](Cc1ccccc1)NC(=O)[C@H](CC(N)=O)NC(=O)[C@H](CC(N)=O)NC(=O)[C@H](CC(C)C)NC(=O)[C@H](CC(N)=O)NC(=O)[C@H](CCCNC(=N)N)NC(=O)[C@H](Cc1c[nH]c2ccccc12)NC(=O)[C@H](Cc1ccc(O)cc1)NC(=O)[C@H](C)NC(=O)[C@H](CO)NC(=O)[C@H](CC(C)C)NC(=O)[C@@H](NC(=O)[C@@H]1CSSC[C@H](N)C(=O)N[C@@H](CO)C(=O)N[C@@H](CC(N)=O)C(=O)N[C@@H](CC(C)C)C(=O)N[C@@H](CO)C(=O)N[C@@H]([C@@H](C)O)C(=O)N1)C(C)C)C(=O)NCC(=O)N[C@@H](Cc1ccccc1)C(=O)NCC(=O)N1CCC[C@H]1C(=O)N[C@@H](CCC(=O)O)C(=O)N[C@H](C(=O)N1CCC[C@H]1C(N)=O)[C@@H](C)O` [pCT] (H-CSNLSTCVLSAYWRNLNNFHRFSGMGFGPETP-NH2; disulfide 1-7): the Ki is 21.4 nM on hCTR M367A; 33.9 nM on hCTR W361A; 6.31 nM at hCTR T280A; 12 nM at hCTR F285A; 15.5 nM at hCTR L297A.
